These results are taken from BindingDB's records for doi:10.1021/jm00402a012 (Harvard Medical School, 1988).

The Ki is a measure of affinity in units of concentration, obtained from inhibition or displacement. The low end stands for a stronger hold on the target, the high end for a looser hold on the target.

The nature of this experiment: Inhibition of Folyl-polyglutamate synthase from mouse liver.
Regarding `CN(Cc1cnc2nc(N)nc(N)c2n1)c1ccc(C(=O)NC(CCP(=O)(O)O)C(=O)O)cc1` (stereo not drawn) [2-{4-[(2,4-Diamino-pteridin-6-ylmethyl)-methyl-amino]-benzoylamino}-4-phosphono-butyric acid], the affinity, expressed as Ki, was 185 µM.
Compound `Nc1nc(N)c2nc(CNc3ccc(C(=O)NC(CCS(=O)(=O)O)C(=O)O)cc3)cnc2n1` (stereo not drawn) [2-{4-[(2,4-Diamino-pteridin-6-ylmethyl)-amino]-benzoylamino}-4-sulfo-butyric acid] displayed a Ki of 45 µM.
Regarding `CN(Cc1cnc2nc(N)nc(N)c2n1)c1ccc(C(=O)NC(CCS(=O)(=O)O)C(=O)O)cc1` (stereo not drawn) [2-{4-[(2,4-Diamino-pteridin-6-ylmethyl)-methyl-amino]-benzoylamino}-4-sulfo-butyric acid], the affinity, expressed as Ki, was 188 µM.
